For series [1], the system named is subgenomic HCV genotype 1b replicon, I389/NS3-3'/ LucUbiNeo-ET. Briefly: in vitro antiviral activity: luciferase assay in LucUbiNeo-ET HCV replicon cells. The format is cell-based. The settings on record: Hepatitis C virus, 48 h, 2 days of incubation, luciferase readout, mean of duplicates. From the text:
(§1) To analyze the antiviral activity of the compounds, we used a stable cell line, LucUbiNeo-ET, that contains a subgenomic HCV genotype 1b replicon, I389/NS3-3'/ LucUbiNeo-ET, that express luciferase constitutively (Krieger et al, JVI 2001; 75:4614; Frese et al., JGV 2003; 84: 1253-1259). To evaluate the cellular toxicity, we use other cell line, Huh-7/Lunet (Friebe et al., JVI 2005; 79: 380-392), that originally carried a selectable luciferase HCV 1b replicon and was cured by treatment with an HCV-specific inhibitor. These cells are characterized by high permissiveness for HCV RNA replication. LucUbiNeo-ET cell line was cultured at 37°C in a humidified atmosphere with 5% CO2 in Dulbecco's modified Eagle medium (D-MEM) supplemented with high glucose concentration (4.5g/l) (Invitrogen), 10% (vol/vol) heat-inactivated fetal bovine serum (Hyclone, Cultek), 2mM L-Glutamine (Sigma-aldrich), 1mM sodium pyruvate (Sigma-aldrich), 1% MEM NEEA (Sigma-aldrich), and 0.5 mg/ml of Geneticin (G418) (Gibco, Invitrogen). Cured or Huh-7/Lunet cell line was maintained at the same conditions as described above without the addition of Geneticin.
(§2) Antiviral activity was carried out in white-clear bottom 96-well plates, and cytotoxicity assays were performed in clear 96-well plates. Cells were seeded at a density of 10^4/well in 100ul D-MEM without selection of antibiotics. After 24h, nine fivefold serial dilution of compounds, with 3 replicates at each dilution, were prepared in D-MEM and added to the appropriate wells, yielding concentrations of 125 to 0,00032 ug/ml in a final volume of 100 ul of D-MEM. Following 2 days of incubation, we determined the antiviral activity (EC50) by quantifying the luciferase with the Luciferase Bright Glo assay (Promega). Briefly, LucUbiNeo-ET cells were harvested with the addition of 100 ul of luciferase per well, and after 2 minutes of shaking, the light was read in a Luminometer Fluoroskan Ascent FL. Toxicity (CC50) was analysed in the Lunet/HuH7 cells by the addition of 10 ul of MTT (3-(4,5-dimethylthiazol-2-yl)-2,5-diphenyltetrazolium bromide) per well. After 4h of incubation at 37°C in a humidified atmosphere with 5% CO2, the amount of formazan produced was quantified spectrophotometrically at 550/620 nm [C. Pannecouque et al, Nature protocol 2008; 3 (3): 427-434]. The EC50 and CC50 values were calculated for each compound. These assays were done in duplicate and the results shown in Table 1 represent the mean value of these duplicates.

A further series in a line: cytotoxicity assay (MTT). The format is cell-based. The following applies: human, Lunet/HuH7 cells, 2 days of incubation, mean of duplicates; for CC50 at 48 h: huh-7/lunet cells; for CC50 at 2 days: Huh-7/Lunet cells (cured HCV replicon cells).
Source text: as §1, §2
(In general: Replicon systems follow genome replication, usually without infectious particles.)

Molecules are shown by their SMILES.

From EP2905024A1 (Institut Quimic De Sarriá Cets, Fundació Privada, priority 2014, dated 2015) come the findings set out here.

In general, EC50 refers to the concentration giving half of the maximal effect. A lower EC50 goes with higher potency in that assay. Usually CC50 stands for the concentration that lowers cell viability or growth by half. The low end stands for greater toxicity to the cells, the high end for lower toxicity to the cells. For `O=C1Nc2nc(Oc3ccccc3)nc(On3nnc4ccccc43)c2CC1c1ccc(F)cc1` (stereo not drawn) [Example 3, 4-((1H-benzo[d][1,2,3]triazol-1-yl)oxy)-6-(4-fluorophenyl)-2-phenoxy-3,4,5,6-tetrahydropyrido[2,3-d]pyrimidine-7(8H)-one], the half-maximal effective concentration (EC50) in series [1] fell in the range of 5 to 22 µM. In the series “cytotoxicity assay (MTT)”, this compound displayed a 50% cytotoxic concentration (CC50) at 48 h of no less than 25 µM.
In turn, `O=C1Nc2nc(Nc3ccccc3)nc(On3nnc4ccccc43)c2CC1c1ccc(F)cc1` (stereo not drawn) [Example 4] displayed an EC50 in series [1] of 1 to 5 µM. Also, the cytotoxic concentration (CC50) at 48 h in the series “cytotoxicity assay (MTT)” lay in the range of 10 to 25 µM.
Take `O=C1Nc2nc(Nc3ccccc3)nc(On3nnc4ccccc43)c2CC1c1ccc(Cl)cc1Cl` (stereo not drawn) [Example 6, 4-((1H-benzo[d][1,2,3]triazol-1-yl)oxy)-6-(2,4-dichlorophenyl)-2-(phenylamino)-5,6-dihydropyrido[2,3-d]pyrimidine-7(8H)-one]: the EC50 in series [1] was in the range of 1 to 5 µM. In “cytotoxicity assay (MTT)”, this compound yielded a CC50 at 2 days of less than 10 µM.
On to `CCCOCCNc1nc(Nc2ccccc2)nc2c1CC(c1c(Cl)cccc1Cl)C(=O)N2` (stereo not drawn) [Example 11, 6-(2,6-dichlorophenyl)-2-(phenylamino)-4-((2-propoxyethyl)amino)-5,6-dihydropyrido[2,3-d]pyrimidine-7(8H)-one], for which the 50% effective concentration (EC50) in series [1] lay in the range of 5 to 22 µM. The cytotoxic concentration (CC50) at 2 days in the series “cytotoxicity assay (MTT)” was no less than 25 µM.
In the case of `COCCOc1nc(N)nc2c1CC(c1c(Cl)cccc1Cl)C(=O)N2` (stereo not drawn) [Example 13, 2-amino-6-(2,6-dichlorophenyl)-4-(2-methoxyethoxy)-5,6-dihydropyrido[2,3-d]pyrimidine-7(8H)-one], the EC50 in series [1] fell in the range of 5 to 22 µM. The compound also returned a CC50 at 2 days in the series “cytotoxicity assay (MTT)” of no less than 25 µM.
The like results for `O=C1Nc2nc(Nc3ccccc3)[nH]c(=O)c2CC1c1ccccc1` (stereo not drawn) [Example 18, 6-phenyl-2-(phenylamino)-5,6-dihydropyrido[2,3-d]pyrimidine-4,7(3H,8H)-dione] were, in that order, 1 to 5 µM and no less than 25 µM.
The like results for `O=C1Nc2nc(Nc3ccccc3)[nH]c(=O)c2CC1c1cccc2ccccc12` (stereo not drawn) [Example 20, 6-(naphthalen-1-yl)-2-(phenylamino)-5,6-dihydropyrido[2,3-d]pyrimidine-4,7(3H,8H)-dione] were, in that order, 5 to 22 µM and 10 to 25 µM.
The corresponding values for `O=C1Nc2nc(NCc3ccccc3)[nH]c(=O)c2CC1c1c(Cl)cccc1Cl` (stereo not drawn) [Example 22, 2-(benzylamino)-6-(2,6-dichlorophenyl)-5,6-dihydropyrido [2,3-d]pyrimidine-4,7(3H,8H)-dione] are 5 to 22 µM and no less than 25 µM.
In series [1], `CCCOCCNc1nc(N)nc2[nH]c(=O)c(-c3ccc(F)cc3)cc12` [Example 24, 2-amino-6-(4-fluorophenyl)-4-((2-propoxyethyl)amino) pyrido[2,3-d]pyrimidine-7(8H)-one] came in with an EC50 of 1 to 5 µM. The compound further showed a 50% cytotoxic concentration (CC50) at 2 days in “cytotoxicity assay (MTT)” of no less than 25 µM.
`CCCCCNc1nc(N)nc2[nH]c(=O)c(-c3c(Cl)cccc3Cl)cc12` [Example 28, 2-amino-6-(2,6-dichlorophenyl)-4-(pentylamino)pyrido[2,3-d]pyrimidine-7(8H)-one] registered an EC50 in series [1] of 1 to 5 µM. This compound came in with a CC50 at 2 days in “cytotoxicity assay (MTT)” of 10 to 25 µM.
The corresponding values for `O=c1[nH]c2nc(Nc3ccccc3)[nH]c(=O)c2cc1-c1ccc(F)cc1` [Example 29, 6-(4-fluorophenyl)-2-(phenylamino)pyrido[2,3-d]pyrimidine-4,7(3H,8H)-dione] are less than 1 µM and 10 to 25 µM.
As to `O=c1[nH]c2nc(Nc3ccccc3)[nH]c(=O)c2cc1-c1ccccc1` [Example 30, 6-phenyl-2-(phenylamino)pyrido[2,3-d]pyrimidine-4,7(3H,8H)-dione], the concentration for a half-maximal effect (EC50) in series [1] lay in the range of 5 to 22 µM. Moreover, the CC50 at 2 days in the series “cytotoxicity assay (MTT)” is no less than 25 µM.
In the case of `COc1ccc(Nc2nc3[nH]c(=O)c(-c4ccc(F)cc4)cc3c(=O)[nH]2)cc1` [Example 31, 6-(4-fluorophenyl)-2-((4-methoxyphenyl)amino)pyrido[2,3-d]pyrimidine-4,7(3H,8H)-dione], the half-maximal effective concentration (EC50) in series [1] was 5 to 22 µM. This compound also registered a CC50 at 2 days in “cytotoxicity assay (MTT)” of no less than 25 µM.
The like results for `CCCOCCNc1nc(Oc2ccccc2)nc2[nH]c(=O)c(-c3ccc(F)cc3)cc12` [Example 32, 6-(4-fluorophenyl)-2-phenoxy-4-((2-propoxyethyl)amino) pyrido[2,3-d]pyrimidine-7(8H)-one] were, in that order, 1 to 5 µM and no less than 25 µM.
The like results for `Nc1nc(Nc2ccccc2)nc2[nH]c(=O)c(-c3c(F)cccc3F)cc12` [Example 34, 4-amino-6-(2,6-difluorophenyl)-2-(phenylamino)pyrido[2,3-d]pyrimidine-7(8H)-one] were, in that order, 5 to 22 µM and less than 10 µM.
For the compound `Nc1nc(Nc2ccccc2)nc2[nH]c(=O)c(-c3c(Br)cccc3Br)cc12` [Example 36, 4-amino-6-(2,6-dibromophenyl)-2-(phenylamino)pyrido[2,3-d]pyrimidine-7(8H)-one], the concentration for a half-maximal effect (EC50) in series [1] fell in the range of 5 to 22 µM. In the series “cytotoxicity assay (MTT)”, this compound displayed a 50% cytotoxic concentration (CC50) at 2 days of no less than 25 µM.
The like results for `Nc1nc(Nc2ccccc2)nc2[nH]c(=O)c(-c3ccccc3)cc12` [Example 37, 4-amino-6-phenyl-2-(phenylamino)pyrido[2,3-d]pyrimidine-7(8H)-one] were, in that order, less than 1 µM and 10 to 25 µM.
In turn, `CCCOCCNc1nc(N)nc2c1cc(-c1ccc(F)cc1)c(=O)n2C` [Example 41, 2-amino-6-(4-fluorophenyl)-8-methyl-4-((2-propoxyethyl)amino)pyrido[2,3-d]pyrimidine-7(8H)-one] returned an EC50 in series [1] of 1 to 5 µM. Also, the CC50 at 2 days in the series “cytotoxicity assay (MTT)” was no less than 25 µM.
Compound `CCCCCNc1nc(N)nc2c1cc(-c1ccc(F)cc1)c(=O)n2C` [Example 42, 2-amino-6-(4-fluorophenyl)-8-methyl-4-(pentylamino) pyrido[2,3-d]pyrimidine-7(8H)-one] showed an EC50 in series [1] of 5 to 22 µM. The half-maximal cytotoxic concentration (CC50) at 2 days in “cytotoxicity assay (MTT)” was 10 to 25 µM.
The compound `Cn1c(=O)c(-c2ccc(F)cc2)cc2c(N3CCCC3)nc(N)nc21` [Example 43] yielded an EC50 in series [1] of 5 to 22 µM. In “cytotoxicity assay (MTT)”, this compound registered a 50% cytotoxic concentration (CC50) at 48 h of no less than 25 µM.
Consider `CCCOCCOc1nc(N)nc2c1cc(-c1c(Cl)cccc1Cl)c(=O)n2C` [Example 44, 2-amino-6-(2,6-dichlorophenyl)-8-methyl-4-(2-propoxyethoxy)pyrido[2,3-d]pyrimidine-7(8H)-one], for which the EC50 in series [1] is 5 to 22 µM. In addition, the CC50 at 2 days in the series “cytotoxicity assay (MTT)” is no less than 25 µM.
With `COc1nc(N)nc2c1CC(c1c(Cl)cccc1Cl)C(=O)N2C` (stereo not drawn) [Example 45, 2-amino-6-(2,6-dichlorophenyl)-4-methoxy-8-methyl-5,6-dihydropyrido[2,3-d]pyrimidine-7(8H)-one], the EC50 in series [1] lay within 5 to 22 µM. Besides, the half-maximal cytotoxic concentration (CC50) at 2 days in “cytotoxicity assay (MTT)” is no less than 25 µM.
Take `CCCOCCNc1nc(Nc2ccccc2)nc2c1cc(-c1c(Cl)cccc1Cl)c(=O)n2C` [Example 46, 6-(2,6-dichlorophenyl)-8-methyl-2-(phenylamino)-4-((2-propoxyethyl)amino)pyrido[2,3-d]pyrimidine-7(8H)-one]: the EC50 in series [1] lay within 5 to 22 µM. In addition, the cytotoxic concentration (CC50) at 2 days in “cytotoxicity assay (MTT)” was no less than 25 µM.
On to `Cn1c(=O)c(-c2c(F)cccc2F)cc2c(N)nc(Nc3ccccc3)nc21` [Example 47, 4-amino-6-(2,6-difluorophenyl)-8-methyl-2-(phenylamino)pyrido[2,3-d]pyrimidine-7(8H)-one], for which, in series [1], the EC50 was less than 1 µM. For the same compound, in the series “cytotoxicity assay (MTT)”, the cytotoxic concentration (CC50) at 2 days is 10 to 25 µM.
The like results for `Cn1c(=O)c(-c2c(Cl)cccc2Cl)cc2c(N)nc(Nc3ccccc3)nc21` [Example 48, 4-amino-6-(2,6-dichlorophenyl)-8-methyl-2-(phenylamino)pyrido[2,3-d]pyrimidine-7(8H)-one] were, in that order, less than 1 µM and less than 10 µM.
The like results for `Cn1c(=O)c(-c2c(Br)cccc2Br)cc2c(N)nc(Nc3ccccc3)nc21` [Example 49, 4-amino-6-(2,6-bromophenyl)-8-methyl-2-(phenylamino)pyrido[2,3-d]pyrimidine-7(8H)-one] were, in that order, less than 1 µM and less than 10 µM.
The like results for `Cn1c(=O)c(-c2ccccc2)cc2c(N)nc(Nc3ccccc3)nc21` [Example 50, 4-amino-8-methyl-6-phenyl-2-(phenylamino)pyrido[2,3-d]pyrimidine-7(8H)-one] were, in that order, less than 1 µM and 10 to 25 µM.
